Values quoted from earlier work in patent publication US20050273047A1, “System and method for transdermal delivery of an anticoagulant” (priority 2004, published 2005).

Molecular target: Factor Xa (Homo sapiens, UniProt P00742)
Conditions: as compared to the corresponding methyl ester; cited from earlier work

Sequence of Factor Xa (P00742 235-488 limits assumed): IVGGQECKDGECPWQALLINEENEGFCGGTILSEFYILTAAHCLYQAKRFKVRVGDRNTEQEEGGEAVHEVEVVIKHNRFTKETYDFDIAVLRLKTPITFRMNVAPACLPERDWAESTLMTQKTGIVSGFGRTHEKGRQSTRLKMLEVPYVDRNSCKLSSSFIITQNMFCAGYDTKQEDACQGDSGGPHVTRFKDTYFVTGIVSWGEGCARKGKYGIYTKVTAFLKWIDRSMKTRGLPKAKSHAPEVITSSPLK
Sequence of Factor Xa (P00742 41-179 partner limits assumed): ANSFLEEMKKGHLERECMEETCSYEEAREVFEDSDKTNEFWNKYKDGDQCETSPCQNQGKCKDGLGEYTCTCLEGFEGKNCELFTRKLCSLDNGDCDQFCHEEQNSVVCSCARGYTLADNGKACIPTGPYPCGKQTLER

CC(=N)N1CC[C@H](Oc2ccc([C@H](Cc3ccc4ccc(C(=N)N)cc4c3)C(=O)O)cc2)C1 [compound shown in FIG. 7]
enhancement of Factor Xa selectivity by the carboxylic acid: about 100 fold
